# Laboratory results published in patent US4066635A, “L-Pyroglutamyl-L-histidyl-L-prolyl-beta-alaninamide and salts” (Hoffmann-La Roche Inc., priority 1976, dated 1978).
# Non-standard residues stand in square brackets, D forms with d. Residues, ends and D or L forms follow the SMILES beside them. pGlu = O=C1CC[C@@H](C(=O)O)N1; βAla = NCCC(=O)O
# Columns and labels:
# [1] = test system: noradrenalin (NA) in the entire brain of male mice; assay: Lowering of noradrenalin (NA) in entire brain of mice after FLA 63 (FLA 63-induced NA-lowering); assay type: in vivo, mouse
# Method: The action of antidepressants can be explained by the fact that such substances normalise the activity of noradrenergic neurones in the brain, this activity being altered in the case of depressive illness. […] If a test substance has NA-liberating action, then this manifests itself in an intensification of the FLA63-induced NA-lowering.
# In order to determine the antidepressant action of the compound of formula I hereinbefore, the lowering of NA in the entire brain of male mice was determined 90 minutes after the i.p. injection of FLA 63 (5 mg/kg).
# mice = assay: Locomotor activity in mice; assay type: in vivo, mouse
# [2] = Toxicity (LD 10, LD 50) in the mouse; assay type: in vivo; conditions: in vivo, iv
# mouse = assay: Toxicity (LD 10, LD 50) in the mouse; assay type: in vivo; conditions: p.o.
structure (smiles),measurement,setting,value
"NC(=O)CCNC(=O)[C@@H]1CCCN1C(=O)[C@H](Cc1c[nH]cn1)NC(=O)[C@@H]1CCC(=O)N1 [compound of formula I, L-pyroglutamyl-L-histidyl-L-prolyl-β-alaninamide] ([pGlu]HP[βAla]-NH2)",Noradrenalin (%),"[1]; FLA 63 5 mg/kg i.p. plus test substance injected simultaneously, 90 minutes, entire brain, male mice, FLA 63 alone = 100%",82.2 ± 2.6%
same,liberation of NA in the brain of mice (in words),[1]; mice,increases the liberation of NA
same,FLA 63-induced NA-lowering (in words),"[1]; simultaneous injection with FLA 63 (5 mg/kg i.p.), 90 minutes, male mice",significant acceleration of the FLA 63-induced NA-lowering
same,locomotor activity in mice (in words),mice,increase in the locomotor activity
same,LD50,[2],> 4000 mg/kg
same,LD 10,mouse,above 8 g/kg
